From patent US20220387544A1, “NOVEL THERAPEUTIC USE” (Artios Pharma Limited, priority 2019, published 2022)
Entries after “also recorded” stand apart in the source; their conditions may differ.

Key:
Format in all cases: cell-based
[1] = tested on: Parental and REV7 KO SUM149 cells; experiment: Clonogenic survival assay (ICR), SUM149 REV7 KO clones; conditions: REV7 KO clones vs parental SUM149, 14 days
Procedure: (§1) Clonogenic survival assays were performed as previously described (Edwards et al Nature (2008) 451, 1111-1115; Farmer et al Nature (2005) 434, 917-921). For measurement of sensitivity to Compound A inhibitor, exponentially growing cells were seeded in six-well plates at a concentration of 1000-2000 cells per well. For Compound A, cells were continuously exposed to the drug with media and drug replaced every 72 h. After 14 days, cells were fixed and stained with sulphorhodamine-B (Sigma) and colonies were counted. SFs were calculated and drug sensitivity curves plotted as previously described (Farmer et al Nature (2005) 434, 917-921).
(§2) Parental or REV7 KO SUM149 cells were seeded into 6 well plates and incubated overnight. The cells were then treated with a serial dilution of Polθ inhibitor or olaparib for 14 days, fixed, and stained with sulphorhodamine B. The colonies in each well were counted and normalised survival data plotted to generate a dose-response curve.

[2] = tested on: parental and C20orf196 KO SUM149 tumouroids; experiment: Tumouroid assay, parental vs C20orf196 KO SUM149
Procedure: (§3) Cells were seeded into a hydrogel containing 10% rat tail collagen (OcellO) in 384-well high content imaging microplates at varying densities to compensate for differential growth characteristics (Table 2).
(§4) 24 hours after seeding, test compounds and olaparib (Selleckchem) were added in an eight-point dose range with a one in three serial dilution (maximum concentration 12 μM for all compounds, except 30 μM compound A for REV7 KO cell experiments). Dimethyl sulfoxide (DMSO) and 1 μM staurosporine (Med Chem Express) treatments were included as negative and positive controls, respectively. All treatments were carried out in quadruplicate.
After seven or fourteen days of treatment for 20orf196 KO and REV7 KO experiments respectively, cells were fixed with 5× Fix & Stain solution (OcellO) for 16 hours at 4° C. to stain both the nuclei using Hoechst 33258 and the actin cytoskeleton using Rhodamine-Phalloidin. Cells were washed four times with phosphate-buffered saline (PBS), and plates were imaged and analysed using OcellO's three-dimensional image analysis software (Ominer). For each well, two channels of 16-bit image stacks were collected using an automated microscope system: Molecular Devices ImageXpress Micro XLS, equipped with a 4× magnification/0.2NA PlanApo objective. For each image slice (n=47), pixel size was 0.324 μm and step size in z-direction was 50 μm.
Parental or C20orf196 KO SUM149 cells were seeded into a collagen-containing hydrogel in 384-well plates and incubated overnight. The resulting tumouroids were treated with a serial dilution of Polθ inhibitor or olaparib for seven days, fixed, and stained to visualise DNA and F-actin. Plates were imaged, and tumouroid size was measured using OcellO's three-dimensional image analysis software.
(§5) Parental or C20orf196 KO SUM149 cells were seeded into a collagen-containing hydrogel in 384-well plates and incubated overnight. The resulting tumouroids were treated with a serial dilution of Polθ inhibitor or olaparib for seven days, fixed, and stained to visualise DNA and F-actin. Plates were imaged, and the number of nuclei per tumouroid was counted using OcellO's three-dimensional image analysis software.
as §5, with “with” for “with a serial dilution of”, “inhibitor, olaparib” for “inhibitor”, “control compound (at the concentrations indicated)” for “olaparib”, “fraction” for “number”, “without an associated actin cytoskeleton” for “per tumouroid”, “calculated” for “counted”

[3] = tested on: SUM149 Parental and C20orf196 KO SUM149 cells; experiment: Clonogenic survival assay (ICR), SUM149 C20ORF196 KO clones
Procedure: as §1
as §2, with “C20orf196” for “REV7”, “exposed to” for “treated with”, “curve, as described before.” for “curve.”

[4] = tested on: parental and REV7 KO 22Rv1 cells; experiment: Colony formation assay, 22Rv1; conditions: REV7 KO vs REV7 wild type parental 22Rv1 cells, 2 weeks
Procedure: (§6) 1 mL of cells were seeded per well in a 24-well plate in triplicate and incubated overnight at 37° C. Cells were treated with a seven-point dose response curve with a one-in-three serial dilution of compound for the timepoints listed in Table 5. For MDA-MB-436 cells media was replenished every five days.
(§7) Cells were fixed with 70% ethanol for 20 minutes at room temperature with shaking. Cells were then stained with 0.04% Crystal Violet (Sigma Aldrich) for 20 minutes at room temperature with shaking. Cells were washed 6 times with water and air-dried overnight.
(§8) Plates were imaged using a Gelcount (Oxford Optronix), and colonies were counted using parameters optimized for each cell line. 22Rv1 viability curves were generated from the colony counts alone. MDA-MB-436 and HCC1935 viability curves were generated from solubilized colonies. Colonies were solubilized using 10% acetic acid (VWR) for 30 minutes, absorbance at 595 nm was read using the Clariostar plate reader (BMG Labtech), and blank correction was applied. Relative Survival was calculated by normalization of compound treated wells to DMSO treated wells.
The effect of a DNA polymerase theta (Polθ) inhibitor (Compound A) or the PARP inhibitor olaparib on the survival of parental (REV7 wild type) or REV7 deleted (REV7 KO) 22Rv1 cells was investigated in colony formation assays (CFA—see protocol above). […]

[5] = tested on: parental and REV7 KO SUM149 tumouroids; experiment: Tumouroid assay, parental vs REV7 KO SUM149; conditions: fourteen days treatment
Procedure: as §3, §4
After seven or fourteen days of treatment for 20orf196 KO and REV7 KO experiments respectively, cells were fixed with 5× Fix & Stain solution (OcellO) for 16 hours at 4° C. to stain both the nuclei using Hoechst 33258 and the actin cytoskeleton using Rhodamine-Phalloidin. Cells were washed four times with phosphate-buffered saline (PBS), and plates were imaged and analysed using OcellO's three-dimensional image analysis software (Ominer). […]
Parental or REV7 KO SUM149 cells were seeded into a collagen-containing hydrogel in 384-well plates and incubated overnight. […] Plates were imaged, and the fraction of nuclei without an associated actin cytoskeleton was calculated using OcellO's three-dimensional image analysis software.

[6] = tested on: parental and SHLD2 KO HCC1395 cells; experiment: Colony formation assay, HCC1395; conditions: SHLD2 KO vs parental HCC1395 cells, colony solubilisation protocol
Procedure: as §6, §7
as §8, with “22Rv1 viability curves were generated from the colony counts alone. MDA-MB-436 and HCC1935 viability curves were generated from solubilized colonies.” left out
(§9) The effect of a DNA polymerase theta (Pole) inhibitor (Compound A) and the PARP inhibitor olaparib on the survival of parental and SHLD2 deleted (SHLD2 KO) HCC1395 cells was investigated by colony formation assay. Briefly, each population was seeded at low density, incubated with different concentrations of the compound and the relative survival normalized to untreated cells was measured with the colony solubilisation protocol.

[7] = tested on: parental and SHLD2 KO MDA-MB-436 cells; experiment: Colony formation assay, MDA-MB-436; conditions: SHLD2 KO vs parental MDA-MB-436 cells, colony solubilization protocol
Procedure: as §6, §7
as §8, with “22Rv1 viability curves were generated from the colony counts alone. MDA-MB-436 and HCC1935 viability curves were generated from solubilized colonies.” left out
as §9, with “(Polθ)” for “(Pole)”, “MDA-MB-436” for “HCC1395”, “solubilization” for “solubilisation”

[8] = tested on: Shieldin-defective, PARPi-resistant SUM149 cells; experiment: Re-sensitisation to olaparib; conditions: deletion of C20orf196 or 53BP1 or expression of BRCA1 in SUM149; olaparib 1 μM 10 days
Procedure: For measurement of re-sensitisation to Olaparib, exponentially growing cells were exposed to Compound A for 48 hours. After, cells were seeded in 96-well plates at a concentration of 1000-2000 cells per well. 24 hours post-seeding, Olaparib treatment was initiated and cells were continuously exposed to the drug with media and drug replenished every 72 hours. After 10 days, cell viability was estimated using Cell-Titre Glo (Promega). SFs were calculated and drug sensitivity curves plotted as previously described (Farmer et al Nature (2005) 434, 917-921).
Briefly, parental SUM149 cells or derivatives with either BRCA1 restored or with genetic deletion of either C20orf196 or 53BP1 were treated with Compound A in a tissue culture flask for 48 hours. The cells were then washed before seeding at low density in 96 well plates. 24 hours post seeding, cells were incubated with either olaparib or DMSO for a further 10 days. The relative survival normalised to untreated cells was measured using Cell-Titre Glo.

[9] = tested on: DLD1 colon cancer cells; experiment: CRISPR-Cas9 KO synthetic lethality screen; conditions: compound at approximate EC20, 15 days, vs DMSO
Procedure: The CRISPR KO screen, sample preparation and data analysis were performed by Horizon Discovery using a CRISPR library against 1965 genes with 10 gRNA's per gene. DLD-1 colon cancer cells were grown in RPMI medium with 10% FBS, infected with the lentiviral library (each viral particle containing Cas9 and sgRNA), selected with puromycin for 2 weeks, and treated with compound B (EC17.1%) or DMSO for 15 days. Synthetic lethality scores were calculated by normalizing the sgRNA count from compound treated cells to DMSO treated control.
The synthetic lethal effect between Polθ inhibitor (Compound B) and knockout of any one of 1965 genes in DLD1 colon cancer cell line was assessed. A CRISPR KO screen was performed in DLD1 cells using compound B at an approximate EC20, using DMSO-exposed cells (the compound vehicle) as control. The quantity of cells containing each sgRNA was measured via next generation sequencing. (FIG. 5(a)) REV7 was in the Top 50 hits out of the […] genes screened, based on FDR score together with comparison to a validated synthetic lethal partner BRCA2. (b) Based on the log fold change, REV7 was in the top 25 hits. […] 7 out of 10 gRNA's were synthetic lethal with Polθ inhibition.

[10] = C20orf196 KO vs parental SUM149 tumouroids, seven days treatment
[11] = in C20orf196 KO cells when compared with olaparib

SMILES	sensitivity by reduction in number of colonies [1]	cell death (fraction of dead cells) ([2]; C20orf196 KO vs parental SUM149 tumouroid cultures, seven days treatment)	sensitivity by reduction in number of nuclei per tumouroid [2, 10]	sensitivity by reduction in tumouroid size [2, 10]	sensitivity by reduction in number of colonies ([3]; C20orf196 KO clones vs parental SUM149, 14 days)	sensitivity of parental SUM149 cells ([3]; parental SUM149 (BRCA1 mutation), 14 days)	sensitivity by relative survival (colonies) [4]	cell death (fraction of dead cells) [5]	sensitivity by relative survival [6]	sensitivity by relative survival [7]	resistance to olaparib [8]	cell death [2, 11]	reduction in the number of nuclei per tumoroid [2, 11]	reduction in tumoroid size [2, 11]	REV7 gRNA's synthetic lethal with Polθ inhibition, out of 10 [9]	position of REV7 among hits based on log fold change [9]
O=C(c1cc(Cc2n[nH]c(=O)c3ccccc23)ccc1F)N1CCN(C(=O)C2CC2)CC1 [olaparib, reference compound]	resistance; also recorded: more resistant	significantly less cell death	less sensitive	less sensitive	more resistant	hypersensitive	still retain resistance	less cell death	significantly more resistant	trend for increased resistance	induces resistance; also recorded: marked resistance					
Cc1cccc(N(C)C(=O)[C@@H]2C[C@H](O)CN2c2nc(C)cc(C(F)(F)F)c2C#N)c1 [Compound B, (2S,4S)-1-(3-cyano-6-methyl-4-(trifluoromethyl)pyridin-2-yl)-4-hydroxy-N-methyl-N-(m-tolyl)pyrrolidine-2-carboxamide]												significantly more cell death	greater reduction in the number of nuclei per tumoroid	greater reduction in tumoroid size	7	≤ 25
